A short description of series [1]: Freshly isolated potato intercellular wash fluid (pIWF). Conditions: Russet Burbank potato, up to 5 minutes.

Where no end group is shown, it is not given here.

On to `CSCC[C@H](N)C(=O)N[C@@H](CCCNC(=N)N)C(=O)N[C@@H](C)C(=O)N[C@@H](CCCCN)C(=O)N[C@@H](Cc1c[nH]c2ccccc12)C(=O)N[C@@H](CCCNC(=N)N)C(=O)N[C@@H](CCCCN)C(=O)N[C@@H](CCCCN)C(=O)N[C@@H](CCCNC(=N)N)C(=O)N[C@H](C(=O)N[C@@H](CCCNC(=N)N)C(=O)N[C@@H](CCCNC(=N)N)C(=O)N[C@@H](CC(C)C)C(=O)N[C@@H](CCCCN)C(=O)N[C@@H](CCCNC(=N)N)C(=O)N[C@@H](CCCCN)C(=O)N[C@@H](CCCNC(=N)N)C(=O)N[C@@H](CCCNC(=N)N)C(=O)N[C@@H](CCCCN)C(=O)N[C@H](C(=O)N[C@@H](CCCNC(=N)N)C(=O)N[C@@H](C)C(=O)N[C@@H](CCCNC(=N)N)C(=O)N[C@@H](CO)C(=O)N[C@@H](CCCCN)C(=O)O)C(C)C)[C@@H](C)O` [YL41], for which the IC50 in the series with Fusarium culmorum turned out to be 1.2 µM; in the series with Phytophthora infestans, 4.5 µM.
On to “MAVPKKRTSISKKRIRKKIWKRKGYWTSLKAFSLGKSLSTGNSKSFFVQQNK [BL32]”, for which the 50% inhibitory concentration (IC50) is 1.6 µM in the series with Fusarium culmorum and 6.6 µM in the series with Phytophthora infestans.
The like results for “MKIRASIRRISGKSRPIRRRKRVMIISSNPRHKQKQG [BL36]” were, in that order, 2.3 µM and 3.4 µM.
The like results for “MNSHRLPGKGRRMGPIMGHTMHYRRMIITLQSSYSIPPLRKKRT [SL23]” were, in that order, 2.5 µM and 7.7 µM.
Consider “VKVGLATKAERASRQQRKQRKNRQKTLMGTAKVKGAKAKK”, for which the cleaved bond entry in series [1] is “A-T and L-M and M-G and A-K”.
On the same count and under the same terms, for “VKVGLATKAERASRQQRKQRKNRQKTLMGTAQVKGAKAKK” the value was “A-T and L-M and M-G and A-Q”.
Same read-out and setting: for “VKVGLATKAERASRQQRKQRKNRQKTLRGTAKVKGAKAKK” the value was “A-T and L-R and R-G and A-K”.
Turning to “VKVGLATKAERASRQQRKQRKNRQKTLRGTAKVKGAKAKK [Synthetic FCWP1]”, in the series with S. nodorum, the “IC50 S. nodorum High salt” value was greater than 170 µg/mL and the “IC50 S. nodorum Low salt” value was determined as 22 µg/mL. In addition, in the series on Fusarium culmorum, the “IC50 F. culmorum High salt” value came out at 85 µg/mL and the “IC50 F. culmorum Low salt” value came to 6 µg/mL. For the same molecule, in the series on Phytophthora infestans, the “IC50 P. infestans High salt” value worked out at 20 µg/mL and the “IC50 P. infestans Low salt” value amounted to 10 µg/mL.
Take “VKVGLATKAERASRQQRKQRKNRQKTLRGTAQVKGAKAKK”: the cleaved bond entry in series [1] is “A-T and L-R and R-G and A-Q”.
“VKVGLATKAERASRQQRKQRKNRQKTLRGTRKVKGAKAKK”: the cleaved bond entry in series [1] was “A-T and L-R and R-G and R-K”.
Still for that read-out and setting: for “VKVGLATKAERASRQQRKQRKNRQKTRRGTAKVKGAKAKK” the value was “R-R and G-T and A-K and A-T”.
On the same count and under the same terms, for “VKVGLATKAERASRQQRKQRKNRQKTRRGTRKVKGAKAKK” the value was “A-T and T-R and G-T and R-K”.

What is called IC50 is the concentration needed to halve the response being measured.
